According to US20250129104A1, “7H-PYRROLO[2,3-D]PYRIMIDINES AND PREPARATION AND USES THEREOF” (BioSplice Therapeutics, Inc., priority 2021, published 2025):

Molecular target: recombinant DYRK1A kinase (Homo sapiens (Human), UniProt Q13627)
Assay: DYRK1A kinase assay (Ser/Thr 18 peptide Z-lyte FRET assay)
Format: biochemical
Conditions: DYRK1A kinase activity; 15 μM ATP, 1 h room temperature; method text calls the value IC50
Outline: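 Recombinant human DYRK1A (0.25 μg/mL) with 15 μM ATP and 4 μM Ser/Thr 18 peptide, 1 h at room temperature with compound (11-point, 1:3, 10 μM top, duplicate). Z-lyte development 1 h, then coumarin/fluorescein FRET emission ratio converted to % phosphorylation; IC50 by non-linear regression.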

| Compound | EC50 |
| --- | --- |
| Fc1cc(-c2c[nH]c3nc(NC4CCOCC4)ncc23)cn2ccnc12 [Compound 221, 5-(8-Fluoroimidazo[1,2-a]pyridin-6-yl)-N-(tetrahydro-2H-pyran-4-yl)-7H-pyrrolo[2,3-d]pyrimidin-2-amine] | 23 nM |
| FC(F)CO[C@H]1CC[C@@H](Nc2ncc3c(-c4ccn5nccc5n4)c[nH]c3n2)CC1 [Compound 2222, N-(cis-4-(2,2-Difluoroethoxy)cyclohexyl)-5-(pyrazolo[1,5-a]pyrimidin-5-yl)-7H-pyrrolo[2,3-d]pyrimidin-2-amine] | 5.8 nM |
| 5-(1-(2,2-Difluoroethyl)-1H-benzo[d][1,2,3]triazol-6-yl)-N-(cis-4-(difluoromethoxy)cyclohexyl)-4-methoxy-7H-pyrrolo[2,3-d]pyrimidin-2-amine [Compound 2296] | 103 nM |
| CN1CCC(Nc2ncc3c(-c4cc(F)c5nccn5c4)c[nH]c3n2)CC1 [Compound 219, 5-(8-Fluoroimidazo[1,2-a]pyridin-6-yl)-N-(1-methylpiperidin-4-yl)-7H-pyrrolo[2,3-d]pyrimidin-2-amine] | 5.5 nM |
| Cc1nc2ccc(-c3c[nH]c4nc(NCC(C)(C)F)ncc34)nc2s1 [Compound 54, N-(2-Fluoro-2-methylpropyl)-5-(2-methylthiazolo[5,4-b]pyridin-5-yl)-7H-pyrrolo[2,3-d]pyrimidin-2-amine] | 671 nM |
| CCOc1nc(N[C@H]2CC[C@@](C)(O)CC2)nc2[nH]cc(-c3ccc4nccn4c3)c12 [Compound 2254, cis-4-((4-Ethoxy-5-(imidazo[1,2-a]pyridin-6-yl)-7H-pyrrolo[2,3-d]pyrimidin-2-yl)amino)-1-methylcyclohexan-1-ol] | 25.8 nM |
| O=C(NC1CCOCC1)c1cnn2ccc(-c3c[nH]c4nc(C5CC5)ncc34)cc12 [Compound 1551, 5-(2-Cyclopropyl-7H-pyrrolo[2,3-d]pyrimidin-5-yl)-N-(tetrahydro-2H-pyran-4-yl)pyrazolo[1,5-a]pyridine-3-carboxamide] | 7.5 nM |
| C[C@H](Nc1ncc2c(-c3ccc4ncnn4c3)c[nH]c2n1)C(F)(F)F [Compound 735, (S)-5-([1,2,4]Triazolo[1,5-a]pyridin-6-yl)-N-(1,1,1-trifluoropropan-2-yl)-7H-pyrrolo[2,3-d]pyrimidin-2-amine] | 78.7 nM |
| Cc1nc2c(F)cc(-c3c[nH]c4nc(NCC5CCN(C)CC5)ncc34)cc2n1C(C)C [Compound 529, 5-(4-Fluoro-1-isopropyl-2-methyl-1H-benzo[d]imidazol-6-yl)-N-((1-methylpiperidin-4-yl)methyl)-7H-pyrrolo[2,3-d]pyrimidin-2-a] | 9.3 nM |
| COc1nc(NC2CCC3(CC2)COC3)nc2[nH]cc(-c3ccn4nccc4c3)c12 [Compound 3326, 4-Methoxy-5-(pyrazolo[1,5-a]pyridin-5-yl)-N-(2-oxaspiro[3.5]nonan-7-yl)-7H-pyrrolo[2,3-d]pyrimidin-2-amine] | 1.6 nM |
| C[C@H](Nc1ncc2c(-c3cnc4nccn4c3)c[nH]c2n1)C(F)(F)F [Compound 464, (S)-5-(Imidazo[1,2-a]pyrimidin-6-yl)-N-(1,1,1-trifluoropropan-2-yl)-7H-pyrrolo[2,3-d]pyrimidin-2-amine] | 9.5 nM |
| COc1nc(N[C@H]2CC[C@H](OC(F)F)CC2)nc2[nH]cc(-c3ccc4nccn4c3)c12 [Compound 2245, N-(trans-4-(Difluoromethoxy)cyclohexyl)-5-(imidazo[1,2-a]pyridin-6-yl)-4-methoxy-7H-pyrrolo[2,3-d]pyrimidin-2-amine] | 29.6 nM |
| CC(C)(C)CNc1ncc2c(-c3ccc4nccnc4c3)c[nH]c2n1 [Compound 1911, N-Neopentyl-5-(quinoxalin-6-yl)-7H-pyrrolo[2,3-d]pyrimidin-2-amine] | 117 nM |
| CN1CCC(NC(=O)c2cnn3ccc(-c4c[nH]c5nc(N)ncc45)cc23)CC1 [Compound 1511, 5-(2-amino-7H-pyrrolo[2,3-d]pyrimidin-5-yl)-N-(1-methylpiperidin-4-yl)pyrazolo[1,5-a]pyridine-3-carboxamide] | 3.4 nM |
| CN1CCN(c2ccc(Nc3ncc4c(-c5ccc6nccnc6c5)c[nH]c4n3)cn2)CC1 [Compound 1938, N-(6-(4-Methylpiperazin-1-yl)pyridin-3-yl)-5-(quinoxalin-6-yl)-7H-pyrrolo [2,3-d]pyrimidin-2-amine] | 3.3 nM |
| CN1CCN(c2ccc(Nc3ncc4c(-c5ccc6ncccc6c5)c[nH]c4n3)cn2)CC1 [Compound 1894, N-(6-(4-Methylpiperazin-1-yl)pyridin-3-yl)-5-(quinolin-6-yl)-7H-pyrrolo [2,3-d]pyrimidin-2-amine] | 2.3 nM |
| COc1nc(N[C@H]2CC[C@@H](OCC(F)F)CC2)nc2[nH]cc(-c3ccn4nccc4c3)c12 [Compound 2212, N-(cis-4-(2,2-Difluoroethoxy)cyclohexyl)-4-methoxy-5-(pyrazolo[1,5-a]pyridin-5-yl)-7H-pyrrolo[2,3-d]pyrimidin-2-amine] | 6.6 nM |
| CC(C)(F)CNc1ncc2c(-c3ccc4ncc(Cl)n4n3)c[nH]c2n1 [Compound 952, 5-(3-chloroimidazo[1,2-b]pyridazin-6-yl)-N-(2-fluoro-2-methylpropyl)-7H-pyrrolo[2,3-d]pyrimidin-2-amine] | 2.7 nM |
| Cn1nnc2ccc(-c3c[nH]c4nc(NC5CCOCC5)ncc34)cc21 [Compound 843, 5-(1-Methyl-1H-benzo[d][1,2,3]triazol-6-yl)-N-(tetrahydro-2H-pyran-4-yl)-7H-pyrrolo[2,3-d]pyrimidin-2-amine] | 23.2 nM |
| FC(F)(F)CNc1ncc2c(-c3ccn4nccc4n3)c[nH]c2n1 [Compound 1650, 5-(Pyrazolo[1,5-a]pyrimidin-5-yl)-N-(2,2,2-trifluoroethyl)-7H-pyrrolo[2,3-d]pyrimidin-2-amine] | 19.8 nM |
| COc1nc(N[C@@H]2CCCOC2)nc2[nH]cc(-c3ccn4nccc4c3)c12 [Compound 2314, (R)-4-Methoxy-5-(pyrazolo[1,5-a]pyridin-5-yl)-N-(tetrahydro-2H-pyran-3-yl)-7H-pyrrolo[2,3-d]pyrimidin-2-amine] | 17.3 nM |
| C[C@]1(O)CC[C@@H](Nc2ncc3c(-c4ccc5nccn5c4)c[nH]c3n2)CC1 [Compound 2349, cis-4-((5-(Imidazo[1,2-a]pyridin-6-yl)-7H-pyrrolo[2,3-d]pyrimidin-2-yl)amino)-1-methylcyclohexan-1-ol] | 1.3 nM |

Further lines, results first:

| EC50 | Compound |
| --- | --- |
| 23.7 nM | COC[C@@H](C)Nc1nc(OC)c2c(-c3ccc4nnn(CC(F)F)c4c3)c[nH]c2n1 [Compound 2294, (R)-5-(1-(2,2-Difluoroethyl)-1H-benzo[d][1,2,3]triazol-6-yl)-4-methoxy-N-(1-methoxypropan-2-yl)-7H-pyrrolo[2,3-d]pyrimidin-2-amine] |
| 103 nM | C[C@H](Nc1ncc2c(-c3ccn4nccc4n3)c[nH]c2n1)C(F)(F)F [Compound 1652, (S)-5-(Pyrazolo[1,5-a]pyrimidin-5-yl)-N-(1,1,1-trifluoropropan-2-yl)-7H-pyrrolo[2,3-d]pyrimidin-2-amine] |
| 6.9 nM | Cc1nc2ccc(-c3c[nH]c4nc(N[C@H]5CC[C@@](C)(O)CC5)ncc34)nc2n1CC(F)F [Compound 2239, cis-4-((5-(3-(2,2-Difluoroethyl)-2-methyl-3H-imidazo[4,5-b]pyridin-5-yl)-7H-pyrrolo[2,3-d]pyrimidin-2-yl)amino)-1-methylcyclohexan-1-ol] |
| 2.9 nM | CNc1ncc2c(-c3ccc4ncccc4c3)c[nH]c2n1 [Compound 1863, N-Methyl-5-(quinolin-6-yl)-7H-pyrrolo[2,3-d]pyrimidin-2-amine] |
| 415 nM | CC(C)(C)Nc1ncc2c(-c3ccc4ncnn4c3)c[nH]c2n1 [Compound 718, 5-([1,2,4]Triazolo[1,5-a]pyridin-6-yl)-N-(tert-butyl)-7H-pyrrolo[2,3-d]pyrimidin-2-amine] |
| 1.7 nM | COCCO[C@H]1CC[C@@H](Nc2nc(OC)c3c(-c4ccn5nccc5c4)c[nH]c3n2)CC1 [Compound 2214, 4-Methoxy-N-(cis-4-(2-methoxyethoxy)cyclohexyl)-5-(pyrazolo[1,5-a]pyridin-5-yl)-7H-pyrrolo[2,3-d]pyrimidin-2-amine] |
| 132 nM | COc1nc(N[C@H]2CC[C@@H](OC(F)(F)F)CC2)nc2[nH]cc(-c3ccc4nccn4c3)c12 [Compound 2246, 5-(Imidazo[1,2-a]pyridin-6-yl)-4-methoxy-N-(cis-4-(trifluoromethoxy)cyclohexyl)-7H-pyrrolo[2,3-d]pyrimidin-2-amine] |
| 66 nM | CC(C)Cc1ncc2c(-c3ccc4nnn(C)c4c3)c[nH]c2n1 [Compound 810, 6-(2-Isobutyl-7H-pyrrolo[2,3-d]pyrimidin-5-yl)-1-methyl-1H-benzo[d][1,2,3]triazole] |
| 1.6 nM | COc1nc(NC2CCC3(CC2)COC3)nc2[nH]cc(-c3ccc4nccnc4c3)c12 [Compound 3590, 4-Methoxy-5-(quinoxalin-6-yl)-N-(2-oxaspiro[3.5]nonan-7-yl)-7H-pyrrolo[2,3-d]pyrimidin-2-amine] |
| 1.4 nM | COc1nc(N[C@@H]2[C@@H]3COC[C@@H]32)nc2[nH]cc(-c3ccc4nnn(C)c4c3)c12 [Compound 3127, N-((1R,5S,6s)-3-Oxabicyclo[3.1.0]hexan-6-yl)-4-methoxy-5-(1-methyl-1H-benzo[d][1,2,3]triazol-6-yl)-7H-pyrrolo[2,3-d]pyrimidin-2-amine] |
| 200 nM | [2H]C([2H])([2H])O[C@H]1CC[C@@H](Nc2nc(OC)c3c(-c4ccc5nnn(C)c5c4)c[nH]c3n2)CC1 [Compound 2285, 4-Methoxy-N-(cis-4-(methoxy-d3)cyclohexyl)-5-(1-methyl-1H-benzo[d][1,2,3]triazol-6-yl)-7H-pyrrolo[2,3-d]pyrimidin-2-amine] |
| 9.9 nM | CCO[C@H]1CC[C@@H](Nc2ncc3c(-c4ccc5nnn(C)c5c4)c[nH]c3n2)CC1 [Compound 2143, N-(cis-4-Ethoxycyclohexyl)-5-(1-methyl-1H-benzo[d][1,2,3]triazol-6-yl)-7H-pyrrolo[2,3-d]pyrimidin-2-amine] |
| 15.5 nM | 5-(Imidazo[1,2-a]pyrazin-6-yl)-7H-pyrrolo[2,3-d]pyrimidine [Compound 491] |
